Source: patent US20260284143A1, “METHOD OF USING BIOACTIVE PEPTIDE FRACTION ISOLATED FROM CANARY SEED” (Purdue Research Foundation, priority 2023, published 2026)

Legend:
pancreatic lipase = details: peptides identified from fractionated canary seed proteins; cited from earlier work
C57BL/6J mice [1] = test: Organ and epididymal fat weight; type: in vivo; details: orlistat 40 mg/kg/day, 8 weeks, Western diet
Description: The total body weight gain (g/animal), daily feed intake (g/animal/day), and water consumption was monitored weekly throughout the study. The fecal collection was done per cage, separating fecal matter from bedding on a weekly basis and then stored at −80±3° C. until analysis. After the eight weeks of the study, animals were sacrificed by CO2 asphyxiation. Immediately after, blood was collected by cardiac puncture.

C57BL/6J mice [2] = test: Serum biochemical analysis (TG, HDL, LDL/VLDL, total cholesterol); type: in vivo; details: orlistat 40 mg/kg/day, 8 weeks, fasting serum
Description: Total serum high-density lipoprotein (HDL), low-density lipoprotein (LDL)/very low-density lipoprotein (VLDL), and total cholesterol levels were quantified with HDL, and LDL/VLDL Colorimetric/Fluorometric assay Kit (LSK314100) obtained from Lifespan Bioscience (Seattle, […], USA). The assays were carried out following the manufacturer's instructions, and the absorbance was measured using Multiskan™ FC Microplate Photometer (Waltham, MA, USA). In addition, serum triglyceride (TG) levels were measured using a triglyceride colorimetric kit (LSK302200) purchased from Lifespan Bioscience (Seattle, DC, USA).

C57BL/6J mice [3] = test: Fasting serum levels of metabolic hormones (ELISA); type: in vivo; details: orlistat 40 mg/kg/day, 8 weeks
Description: Mouse serum was analyzed to quantify total serum ghrelin using a mouse enzyme-linked immunosorbent assay (ELISA) ghrelin kit (EIAM-GHR-1) obtained from Raybiotech (Norcross, GA, USA), serum leptin by mouse leptin Duoset ELISA kit (DY49805) obtained from R&D Systems (Minneapolis, MN, USA), serum adiponectin and insulin by commercial mouse ELISA kits (KMP0041 and EMINS) obtained from Thermo Fisher Scientific (Waltham, MA, USA). All assays were carried out following the manufacturer's instructions. Finally, the absorbances were quantified at 450 nm and turbidity corrections at 590 nm using Multiskan™ FC Microplate Photometer (Waltham, MA, USA).

[4] = molecular target: T1, pancreatic lipase type-VI (Sus scrofa, UniProt P00591); test: Pancreatic lipase inhibition and jump dilution (residence time); type: biochemical
T1 sequence (P00591 1-450): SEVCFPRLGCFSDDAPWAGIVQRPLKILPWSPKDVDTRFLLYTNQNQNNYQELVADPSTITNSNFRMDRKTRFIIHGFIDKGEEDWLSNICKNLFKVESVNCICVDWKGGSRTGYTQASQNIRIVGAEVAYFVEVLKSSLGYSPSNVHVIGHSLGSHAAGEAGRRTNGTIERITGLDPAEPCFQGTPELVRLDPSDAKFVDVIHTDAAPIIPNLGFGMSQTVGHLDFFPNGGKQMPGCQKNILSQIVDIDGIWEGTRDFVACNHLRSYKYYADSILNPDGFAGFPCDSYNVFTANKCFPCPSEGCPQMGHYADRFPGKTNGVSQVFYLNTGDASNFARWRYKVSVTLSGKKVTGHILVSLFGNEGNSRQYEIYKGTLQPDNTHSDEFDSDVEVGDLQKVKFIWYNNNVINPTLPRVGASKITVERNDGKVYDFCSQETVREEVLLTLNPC
Description: Pancreatic lipase inhibition was measured according to the procedures described in our previous study. Briefly, samples, substrate, and pancreatic lipase were dis-solved in McIlvaine buffer (0.1 M Citrate-Na2HPO4, pH 7.4). Then, 50 μL of substrate 4-methylumbelliferyl oleate (1 mM) was pre-incubated with 25 μL of peptide sample for 10 min in a black 96-well microplate. Then, 25 μL of pancreatic lipase type-VI (200 U/mL) were pipetted, and the reaction was carried out for one hour. The production of 4-methylumbelliferone was measured fluorometrically using a Fluoroskan Ascent FL Microplate Fluorometer and Luminometer, ThermoFisher Scientific (Waltham, MA, USA) using an excitation wavelength of 355 nm and emission wavelength of 460 nm. The positive control (no inhibitor) used the buffer instead of the sample, and buffer was used instead of pancreatic lipase solution for negative control (no pancreatic lipase activity). Finally, a jump dilution experiment was carried out, as previously reported by Kumar and Lowery. Briefly, enzyme-inhibitor complexes were formed by pre-incubating the substrate, pancreatic lipase (6000 U/mL), and inhibitors (10×IC50) for three hours. […] Finally, the residence time was calculated by measuring tau determined as the reciprocal of koff after fitting the enzyme progress curves to Equation (1).

## TVGPR
Pancreatic lipase
  inhibitory activity towards pancreatic lipase: high inhibitory activity

## LADR
Pancreatic lipase
  inhibitory activity towards pancreatic lipase: high inhibitory activity

## CCCCCCCCCCC[C@@H](C[C@@H]1OC(=O)[C@H]1CCCCCC)OC(=O)[C@H](CC(C)C)NC=O [orlistat]
C57BL/6J mice [1]
  Kidney weight: 402.08 ± 7.43 a mg
C57BL/6J mice [2]
  serum TG concentration vs WD: effective in lowering
  serum total cholesterol vs WD: no difference
C57BL/6J mice [3]
  serum ghrelin concentration: increased
[4]; 30-fold jump dilution
  reversibility of pancreatic lipase inhibition: slow reversibility
[4]; inhibitor 10×IC50, monitored for three hours
  inhibition of pancreatic lipase (PL) in pre-formed complexes: Complete inhibition

## VPPR
Pancreatic lipase
  inhibitory activity towards pancreatic lipase: high inhibitory activity

## LSPR
Pancreatic lipase
  inhibitory activity towards pancreatic lipase: high inhibitory activity
